Consider two compounds from patent publication EP2653156A1, “Pharmaceutical emulsion composition and use thereof” (College of Pharmacy of Taif University, priority 2012, dated 2013).

The nature of the series: Particle size distribution of insulin and/or L-arginine solutions by photon correlation spectroscopy (Malvern Zetasizer Nano-ZS). It is filed as physicochemical. Particulars: for Median particle size D(i), Stability in form of particle size / Median particle size D(i): by intensity; for Median particle size D(i), Stability in form of particle size / Median particle size D(i) / Median particle size (n, 0.5) D(n), Stability in form of particle size / Median particle size (n, 0.5) D(n): unit nm; for Median particle size (n, 0.5) D(n), Stability in form of particle size / Median particle size (n, 0.5) D(n): by number. How it is done:
Determination of the particle size distribution of Insulin and/or L-arginine by number as D (n, 0.5) and by intensity as D (i, 0.5) using nanosizer
The particle size distribution of two separate solutions of insulin (1 U/ml) prepared using 0.1 M HCl and L-arginine (1 mg/ml) prepared in distilled water was determined. In addition, a mixture of particles prepared by mixing insulin and L-arginine previous solutions in 1:1 v/v ratio was assessed by photon correlation spectroscopy using a Malvern Zetasizer Nano-ZS series (Malvern Instruments, UK). Collective 10 readings were performed three times on a sample at 25 °C with a detection angle of 173°. The median and standard deviations were calculated by the instrument. The viscosity was determined using a Vibro viscometer (SV-10, A&D Company, Japan) at 25°C.

Where [1] appears, read: Table 1 (by number), Room temp for 24 hr.
[2] abbreviates: Table 1 (by number), stability at 50°C for 2 hrs.
Where [3] appears, read: Table 1 (by number), stability at 50 °C for 24 hrs.
The mark [4] stands for this setting: Table 2 (by intensity), Room temp for 24 hr.
The mark [5] stands for this setting: Table 2 (by intensity), stability at 50 °C for 2 hrs.
The mark [6] stands for this setting: Table 2 (by intensity), stability at 50°C for 24 hrs.

Consider `N=C(N)NCCC[C@H](N)C(=O)O` [L-arginine (1 mg/ml), L-arginine], for which the Pdl reads like this: under setting [1], 0.474; under setting [2], 0.517; under setting [3], 0.31; under setting [4], 0.474; under setting [5], 0.517; under setting [6], 0.31. In addition, the “Median particle size D(i), Stability in form of particle size” value (shortened to “Median particle size D(i), Stability”) (50 °C for 2 hrs) worked out at 115 nm and the “Median particle size D(i), Stability” value (50°C for 24 hrs) came to 148 nm. The “Median particle size D(i)” value (Room temp for 24 hr) amounted to 122 nm. In addition, the “Median particle size (n, 0.5) D(n), Stability in form of particle size” value runs as follows: (50°C for 2 hrs) 102 nm; (50 °C for 24 hrs) 93.8 nm. The “Median particle size (n, 0.5) D(n)” value (Room temp for 24 hr) is recorded as 74.8 nm. In addition, where the note is “in the aqueous solution”, the particle size is 100-150 nm.

On to `N=C(N)NCCC[C@H](N)C(=O)O` [L-arginine (10mg/ml), L-arginine], for which the Pdl reads like this: under setting [1], 0.442; under setting [2], 0.522; under setting [3], 0.436; under setting [4], 0.442; under setting [5], 0.522; under setting [6], 0.436. Also, the “Median particle size D(i), Stability” value is reported as 174 nm (50 °C for 2 hrs) and 126 nm (50°C for 24 hrs). For the same compound, the “Median particle size D(i)” value (Room temp for 24 hr) stood at 129 nm. For the same compound, the “Median particle size (n, 0.5) D(n), Stability in form of particle size” value (50°C for 2 hrs) came out at 85.8 nm and the “Median particle size (n, 0.5) D(n), Stability in form of particle size” value (50 °C for 24 hrs) was determined as 80.6 nm. Moreover, for the setting “Room temp for 24 hr”, the “Median particle size (n, 0.5) D(n)” value was 109 nm.
